Assay in all cases: relative viability (nuclei count vs DMSO), 5 days (fraction); higher = more cells survive
Compound in the assay “NPK76-II-72-1 + OSI-027”: CC1CC(=O)N(C2=CN=C(N=C2N1C3CCCC3)NC4=C(C=C(C=C4)C(=O)NC5CCN(CC5)C)OC)C [NPK76-II-72-1] + COc1cccc2cc(-c3nc([C@H]4CC[C@H](C(=O)O)CC4)n4ncnc(N)c34)[nH]c12 [OSI-027] (partner 0.5 µM)
A digest of the protocol: (§1)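 Values are medians from duplicate plates. Each reflects relative viability, defined as the nuclei count of treated wells over that of vehicle wells. Lung cancer cell lines in 1536-well plates were pin-tool dosed one day after seeding with one drug alone or with a fixed anchor-drug dose plus five library-drug doses (not always all listed) in √10 steps, then fixed, stained and imaged at 4× after 5 days.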

Compound in the assay “BI-2536 + Alpelisib”: CC[C@@H]1C(=O)N(C)c2cnc(Nc3ccc(C(=O)NC4CCN(C)CC4)cc3OC)nc2N1C1CCCC1 [BI-2536] + Cc1nc(NC(=O)N2CCC[C@H]2C(N)=O)sc1-c1ccnc(C(C)(C)C(F)(F)F)c1 [Alpelisib] (partner 2 µM)
A digest of the protocol:
as §1

Compound in the assay “NPK76-II-72-1 + AZD7762”: CC1CC(=O)N(C2=CN=C(N=C2N1C3CCCC3)NC4=C(C=C(C=C4)C(=O)NC5CCN(CC5)C)OC)C [NPK76-II-72-1] + NC(=O)Nc1cc(-c2cccc(F)c2)sc1C(=O)N[C@H]1CCCNC1 [AZD7762] (partner 0.2 µM)
A digest of the protocol:
as §1

Compound in assay [1]: CC1CC(=O)N(C2=CN=C(N=C2N1C3CCCC3)NC4=C(C=C(C=C4)C(=O)NC5CCN(CC5)C)OC)C [NPK76-II-72-1] + Cc1cc(Nc2cc(N3CCN(C)CC3)nc(Sc3ccc(NC(=O)C4CC4)cc3)n2)n[nH]1 [Tozasertib] (partner 0.1 µM)
A digest of the protocol: as §1

On to NCI-H2126, for which the relative viability was found to be 0.716 with NPK76-II-72-1 + OSI-027 (first compound 0.01 µM); 0.734 in the assay with NPK76-II-72-1 + OSI-027 (first compound 0.03162 µM); 0.678 with NPK76-II-72-1 + OSI-027 (first compound 0.1 µM); 0.738 with NPK76-II-72-1 + OSI-027 (first compound 0.3162 µM); 0.796 with NPK76-II-72-1 + OSI-027 (first compound 1 µM); 0.739 with BI-2536 + Alpelisib (first compound 0.01 µM). The relative viability turned out to be 0.731 with BI-2536 + Alpelisib (first compound 0.03162 µM); 0.62 in the assay with BI-2536 + Alpelisib (first compound 0.1 µM); 0.269 in the assay with BI-2536 + Alpelisib (first compound 0.3162 µM); 0.237 with BI-2536 + Alpelisib (first compound 1 µM); 0.95 in the assay with NPK76-II-72-1 + AZD7762 (first compound 0.01 µM); 1.07 with NPK76-II-72-1 + AZD7762 (first compound 0.03162 µM). For the same cell line, the relative viability in the assay with NPK76-II-72-1 + AZD7762 (first compound 0.1 µM) was determined as 0.99; with NPK76-II-72-1 + AZD7762 (first compound 0.3162 µM), 0.989; in the assay with NPK76-II-72-1 + AZD7762 (first compound 1 µM), 1.01; in assay [1] (first compound 0.01 µM), 0.8; in assay [1] (first compound 0.03162 µM), 0.812; in assay [1] (first compound 0.1 µM), 0.855. Further, the relative viability in assay [1] (first compound 0.3162 µM) was determined as 0.783; in assay [1] (first compound 1 µM) it was 0.888.
NCI-H3122: the relative viability in the assay with NPK76-II-72-1 + OSI-027 (first compound 0.01 µM) worked out at 0.856; in the assay with NPK76-II-72-1 + OSI-027 (first compound 0.03162 µM) it was 0.914; with NPK76-II-72-1 + OSI-027 (first compound 0.1 µM) it was 0.929; with NPK76-II-72-1 + OSI-027 (first compound 0.3162 µM) it was 0.911; in the assay with NPK76-II-72-1 + OSI-027 (first compound 1 µM), 1.02; in the assay with BI-2536 + Alpelisib (first compound 0.01 µM), 0.877. Also, the relative viability turned out to be 0.662 with BI-2536 + Alpelisib (first compound 0.03162 µM); 0.354 in the assay with BI-2536 + Alpelisib (first compound 0.1 µM); 0.198 in the assay with BI-2536 + Alpelisib (first compound 0.3162 µM); 0.203 in the assay with BI-2536 + Alpelisib (first compound 1 µM); 0.88 in the assay with NPK76-II-72-1 + AZD7762 (first compound 0.01 µM); 1 in the assay with NPK76-II-72-1 + AZD7762 (first compound 0.03162 µM). Further, the relative viability amounted to 1.03 with NPK76-II-72-1 + AZD7762 (first compound 0.1 µM); 0.996 with NPK76-II-72-1 + AZD7762 (first compound 0.3162 µM); 0.973 with NPK76-II-72-1 + AZD7762 (first compound 1 µM); 0.389 in assay [1] (first compound 0.01 µM); 0.425 in assay [1] (first compound 0.03162 µM); 0.366 in assay [1] (first compound 0.1 µM). The relative viability in assay [1] (first compound 0.3162 µM) was determined as 0.365; in assay [1] (first compound 1 µM), 0.465.
Turning to NCI-H1975, the relative viability in the assay with NPK76-II-72-1 + OSI-027 (first compound 0.01 µM) came to 0.698; with NPK76-II-72-1 + OSI-027 (first compound 0.03162 µM), 0.712; with NPK76-II-72-1 + OSI-027 (first compound 0.1 µM), 0.753; with NPK76-II-72-1 + OSI-027 (first compound 0.3162 µM) it was 0.72; with NPK76-II-72-1 + OSI-027 (first compound 1 µM), 0.753; in the assay with BI-2536 + Alpelisib (first compound 0.01 µM), 0.654. Also, the relative viability with BI-2536 + Alpelisib (first compound 0.03162 µM) was found to be 0.479; with BI-2536 + Alpelisib (first compound 0.1 µM) it was 0.351; in the assay with BI-2536 + Alpelisib (first compound 0.3162 µM), 0.148; with BI-2536 + Alpelisib (first compound 1 µM) it was 0.173; with NPK76-II-72-1 + AZD7762 (first compound 0.01 µM), 0.727; with NPK76-II-72-1 + AZD7762 (first compound 0.03162 µM), 0.733. The relative viability was 0.686 in the assay with NPK76-II-72-1 + AZD7762 (first compound 0.1 µM); 0.694 in the assay with NPK76-II-72-1 + AZD7762 (first compound 0.3162 µM); 0.734 in the assay with NPK76-II-72-1 + AZD7762 (first compound 1 µM); 0.731 in assay [1] (first compound 0.01 µM); 0.893 in assay [1] (first compound 0.03162 µM); 0.673 in assay [1] (first compound 0.1 µM). Further, the relative viability in assay [1] (first compound 0.3162 µM) amounted to 0.665; in assay [1] (first compound 1 µM), 0.912.
With NCI-H1944, the relative viability with NPK76-II-72-1 + OSI-027 (first compound 0.01 µM) was found to be 0.422; with NPK76-II-72-1 + OSI-027 (first compound 0.03162 µM), 0.44; with NPK76-II-72-1 + OSI-027 (first compound 0.1 µM), 0.364; with NPK76-II-72-1 + OSI-027 (first compound 0.3162 µM), 0.369; with NPK76-II-72-1 + OSI-027 (first compound 1 µM), 0.541; with BI-2536 + Alpelisib (first compound 0.01 µM), 0.895. The relative viability with BI-2536 + Alpelisib (first compound 0.03162 µM) is 0.892; with BI-2536 + Alpelisib (first compound 0.1 µM), 0.679; in the assay with BI-2536 + Alpelisib (first compound 0.3162 µM), 0.192; with BI-2536 + Alpelisib (first compound 1 µM), 0.164; in the assay with NPK76-II-72-1 + AZD7762 (first compound 0.01 µM), 0.456; with NPK76-II-72-1 + AZD7762 (first compound 0.03162 µM), 0.509. The relative viability with NPK76-II-72-1 + AZD7762 (first compound 0.1 µM) came out at 0.779; in the assay with NPK76-II-72-1 + AZD7762 (first compound 0.3162 µM) it was 0.572; with NPK76-II-72-1 + AZD7762 (first compound 1 µM), 0.595; in assay [1] (first compound 0.01 µM), 0.255; in assay [1] (first compound 0.03162 µM) it was 0.283; in assay [1] (first compound 0.1 µM) it was 0.245. The relative viability in assay [1] (first compound 0.3162 µM) was 0.228; in assay [1] (first compound 1 µM), 0.257.
